From US6465614B1, “High-affinity response-selective C-terminal analogs of C5a anaphylatoxin” (priority 1994, dated 2002)
Like-named read-outs stand apart in the source and are kept apart here. Square brackets hold non-standard residues; d marks the D form. Ends that are not written are not given here. Peptide text beside a SMILES is read from it.

T1: human neutrophils (PMN) (Homo sapiens, UniProt P21730)
T1 sequence (P21730 1-350): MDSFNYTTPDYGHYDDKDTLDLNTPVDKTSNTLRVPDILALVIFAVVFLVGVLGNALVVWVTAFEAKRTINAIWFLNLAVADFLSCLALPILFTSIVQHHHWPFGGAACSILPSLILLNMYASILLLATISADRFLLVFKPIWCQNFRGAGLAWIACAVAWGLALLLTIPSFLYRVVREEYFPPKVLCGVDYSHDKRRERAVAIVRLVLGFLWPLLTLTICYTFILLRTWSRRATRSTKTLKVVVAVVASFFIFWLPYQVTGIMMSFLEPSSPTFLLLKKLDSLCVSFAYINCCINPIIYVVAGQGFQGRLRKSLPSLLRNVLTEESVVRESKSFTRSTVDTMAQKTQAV

T2: human fetal artery (Homo sapiens, UniProt P21730)
T2 sequence (P21730 1-350): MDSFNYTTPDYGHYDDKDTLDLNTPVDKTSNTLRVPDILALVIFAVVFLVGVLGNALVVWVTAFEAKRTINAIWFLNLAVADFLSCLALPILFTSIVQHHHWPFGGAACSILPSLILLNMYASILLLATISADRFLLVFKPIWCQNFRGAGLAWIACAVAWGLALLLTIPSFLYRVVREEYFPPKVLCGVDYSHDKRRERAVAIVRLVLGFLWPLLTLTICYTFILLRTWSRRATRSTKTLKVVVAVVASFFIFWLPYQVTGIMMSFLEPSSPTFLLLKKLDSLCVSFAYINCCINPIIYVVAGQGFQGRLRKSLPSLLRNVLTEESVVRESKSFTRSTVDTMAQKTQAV

B1: C5a: C5a anaphylatoxin, 74-residue human glycoprotein; human recombinant C5a (Sigma) or natural C5a used as standard (protein, UniProt P01031 678-751, looked up)
C5a anaphylatoxin: TLQKKIEEIAAKYKHSVVKKCCYDGACVNNDETCEQRAARISLGPRCIKAFTECCVVASQLRANISHKDMQLGR
modifications: C5a anaphylatoxin
notes: C5a anaphylatoxin, 74-residue human glycoprotein; human recombinant C5a (Sigma) or natural C5a used as standard

Key:
guinea-pig platelets = experiment: Guinea-pig platelet aggregation assay; assay type: cell-based; conditions: for Platelet Aggreg (threshold concentration producing visible platelet aggregation): guinea-pig platelets, threshold response
Description: This assay was performed on platelets obtained from the arterial blood of anesthetized male Hartley guinea pigs according to previously published methods (Ember et al., 1992, supra). Briefly, platelet-rich plasma was prepared and diluted to 3×10^8 platelets/ml in 0.39% sodium citrate solution. Peptide samples were diluted in a stepwise fashion in 1.5-fold dilutions and placed in 96-well microplates. A […] peptide sample, […] of platelet-rich plasma, and one 3 mm glass bead were placed in each well. The plates were shaken horizontally at 100 rpm for 5 min at 37° C. Platelet aggregation was evaluated visually in an inverted microscope at 40× magnification. The greatest dilution of peptide producing visible aggregation was scored as the threshold concentration for activity. Natural C5a and C3a were included as internal standards. At least three independent duplicate determinations were conducted for every peptide.

human neutrophils (PMN) [1] = target: T1, human neutrophils (PMN); assay type: cell-based
Description: The release of glucuronidase from human neutrophils was determined as described by Schroder et al. (1987), J. Immunol., 139: 3474-3483. Briefly, human neutrophils were pretreated with cytochalasin B (5 μg/ml, 10 min, 37° C.). The cells (10^6) were incubated in the presence of stimulants for 60 minutes at 37° C. in a final volume of 200 μl and then centrifuged. The supernatant was collected and 50 μl were incubated with 50 μl of 0.01 M P-nitrophenyl-β-D-glucuronide (in 0.1 M sodium acetate at pH 4 for 18 h) as triplicate determinations in 96-well microtiter plates (Corning). The reaction was stopped by addition of 100 μl of 0.4 M gly buffer at pH 10. The reaction developed color that was read at 405 nm in a Titertec Multiscan (MCC/340) ELISA reader. The β-glucuronidase released was expressed as the percentage of total enzyme in the cell that could be released by addition of 0.2% Triton X-100 (Pierce).

human neutrophils (PMN) [2] = target: T1, human neutrophils (PMN); assay type: cell-based; remark: listed apart in the source
Description: Neutrophil polarization assays were conducted as described by Ember et al., 1992, supra. Human neutrophils (PMN) were prepared according to the procedure described by Dahinden et al. (1979), J. Immunol., 130: 857-862. The assay for measuring the effect of C5a analogs on PMN polarization was described by Haston & Shields (1985), J. Immunol. Methods, 81: 229-237. Briefly, PMN (1×10^6 cells/ml) were suspended in 10 mM 3- (N-morpholino) propane sulfonic acid (Sigma Chemical Co.) containing EBSS. […] After 10 minutes of incubation at room temperature, the cells were washed twice and stored until microscopic examination. Cells deviating from the typical spherical shape were visually scored as polarized. Results are expressed as percent of polarized cells per total cells counted (300 cells counted/sample).

human fetal artery = target: T2, human fetal artery; experiment: Smooth muscle contraction of human fetal artery (spasmogenic assay); assay type: cell-based
Description: Tissue strips were suspended in 2 ml organ baths, containing physiological salt solution (Krebs-Ringers solution: 118 mM NaCl, 4.7 mM KCl, 2.5 mM CaCl2, 25 mM NaHCO3, 1.2 mM KH2PO4, 1.2 mM MgSO4, 10 mM Glucose) maintained at 37° C., pH 7.4 and continuously aerated with a […] mixture. Each tissue preparation was equilibrated for 1 hr prior to testing with peptides. All drugs were kept on ice during the procedure and isometric tensions were measured using strain-gauge transducers (Grass FT-03) with a computerized chart recording system (MacLab/8). After the contraction to each peptide reached a plateau, histamine (10 μM) was added to obtain the maximum tissue response. Because tachyphylaxis occurs rapidly to single doses of C5a or peptides, cumulative dose-response curves could not be obtained. Instead, the dose-response profile was compiled from multiple strips from each tissue. After exposing each strip to a single concentration of the peptide followed by supramaximal histamine, the response was expressed as a percentage of the maximal contraction to histamine. Full dose-response curves for C5a (human recombinant C5a; Sigma) or individual peptides were performed in each experiment for each tissue and the EC50 values (i.e., concentration of peptide producing 50t of the maximal response to each peptide) obtained by probit analysis. pD2 transforms [−log EC50 (M)] were calculated for each dose-response curve, and means ±SE obtained for each peptide.
Human umbilical cords were obtained from the Mater Misericordiae Hospital, South Brisbane, Queensland within minutes of delivery. The mid-section of the umbilical cord was cut from the placenta, placed in physiological salt solution and stored at 5° C. for up to 24 hrs. […] The fetal arteries were dissected out and cut into longitudinal strips. The intimal surface of the arteries was rubbed with a cotton bud to remove the endothelium. Strips approximately 2 cm×3 mm were suspended in organ baths under 20 mN of resting tension. Arterial strips were tested repeatedly with peptides following a 60 min drug-free period of rest between assays (Taylor et al. (1994), Inflammation, in press).

serum carboxypeptidases = experiment: Stability toward serum carboxypeptidases (incubation in normal human serum, HPLC); assay type: in vitro ADME; conditions: 37° C., 1 h
Description: FIG. 10. HPLC profiles of decapeptide analogs. FIG. 10A: HPLC of […] (peptide/Sequence I.D. No. 2); a=purified peptide; b=des-Arg peptide ([…]; Sequence I.D. No. 24); c=des-Arg peptide in saline, no incubation; d=des-Arg peptide in saline with incubation for 1 h at 37° C.; e=des-Arg peptide in normal human serum with incubation for 1 h at 37° C. FIG. 10B: HPLC of […]aR (Sequence I.D. No. 10); a=purified peptide; b=peptide in saline, no incubation; c=peptide in saline with incubation for 1 h at 37° C.; d=peptide in normal human serum with incubation for 1 h at 37° C. Solvent system 1: 70 mM triethylamine/phosphoric acid buffer, pH-2.3. Solvent system 2: 60% acetonitrile in the Solvent 1 buffer. Linear gradient of 30-50% solvent 2 at.1%/min, slope=1 ml/min, absorbance monitored at 214 nm.
Both peptides were incubated in normal human serum at 37° C. for 1 h and thereafter reanalyzed on HPLC.

| Molecule | Platelet Aggreg (threshold concentration producing visible platelet aggregation) (guinea-pig platelets) [µM] | EC50 (human neutrophils (PMN) [2]) [µM] | also measured |
| --- | --- | --- | --- |
| CSCC[C@H](NC(=O)[C@H](CC(=O)O)NC(=O)[C@H](CCCCN)NC(=O)[C@H](Cc1ccccc1)NC(=O)[C@H](CO)NC(=O)[C@@H](N)Cc1ccc(O)cc1)C(=O)N[C@@H](CCC(N)=O)C(=O)N[C@@H](CC(C)C)C(=O)N[C@@H](C)C(=O)N[C@@H](CCCNC(=N)N)C(=O)O [peptide 7] | 34 | 48 | EC50 (human neutrophils (PMN) [1]): 1000 µM |
| CSCC[C@H](NC(=O)[C@H](CC(=O)O)NC(=O)[C@H](CCCCN)NC(=O)[C@H](Cc1ccccc1)NC(=O)[C@H](CO)NC(=O)[C@@H](N)Cc1ccc(O)cc1)C(=O)N[C@@H](CCC(N)=O)C(=O)N[C@@H](CC(C)C)C(=O)N[C@H](C)C(=O)N[C@@H](CCCNC(=N)N)C(=O)O [peptide 8] | 20 | 1.2 | EC50 (human neutrophils (PMN) [1]): 32 µM |
| CC(C)C[C@H](NC(=O)[C@@H]1CCCN1C(=O)[C@H](CS)NC(=O)[C@H](CC(=O)O)NC(=O)[C@H](CCCCN)NC(=O)[C@H](Cc1ccccc1)NC(=O)[C@H](CO)NC(=O)[C@@H](N)Cc1ccc(O)cc1)C(=O)N[C@@H](CS)C(=O)N[C@@H](CCCNC(=N)N)C(=O)O [peptide 17] (H-YSFKDCPLCR-OH; N-terminus assumed) | 4.1 | 224 |  |
| CC(C)C[C@@H]1NC(=O)[C@@H]2CCCN2C(=O)[C@@H](NC(=O)[C@H](CC(=O)O)NC(=O)[C@H](CCCCN)NC(=O)[C@H](Cc2ccccc2)NC(=O)[C@H](CO)NC(=O)[C@@H](N)Cc2ccc(O)cc2)CSSC[C@@H](C(=O)N[C@@H](CCCNC(=N)N)C(=O)O)NC1=O [peptide 18] (HELM PEPTIDE1{Y.S.F.K.D.C.P.L.C.R}$PEPTIDE1,PEPTIDE1,6:R3-9:R3$$$V2.0) | >410 |  |  |
| CSCC[C@H](NC(=O)CNC(=O)[C@H](CCCCN)NC(=O)[C@H](Cc1ccccc1)NC(=O)[C@H](CO)NC(=O)[C@@H](N)Cc1ccc(O)cc1)C(=O)N[C@@H](CC(C)C)C(=O)N[C@@H](CC(C)C)C(=O)NCC(=O)N[C@H](CCCNC(=N)N)C(=O)O [peptide 22] (HELM PEPTIDE1{Y.S.F.K.G.M.L.L.G.[dR]}$$$$V2.0; N-terminus and C-terminus assumed) |  |  | agonist character compared to natural C5a in spasmogenic assays (human fetal artery; in words): full agonist of diminished potency; antagonist activity against C5a (human fetal artery; tested at concentrations below those causing contraction or aggregation): devoid of any antagonistic activity |
| ISFKDMQLGR-OH [peptide 1] | 86.3 |  |  |
| YSFKDAPLGR-OH [peptide 15] | 7.4 |  |  |
| YSFKDCPLGR-OH [peptide 16] | 2.3 | 19.5 |  |
| YSFKDMPAGR-OH [peptide 11] | 101 | 215 |  |
| YSFKDMPLGR-OH [peptide 5] | 6.3 |  | increase in potency in spasmogenic and aggregatory activities relative to peptide 2 (human fetal artery; across spasmogenic and platelet aggregation assays (Tables 2 and 3)): 4- to 10 fold; log potency ratio at the EC50 level compared to C5a (human fetal artery; fetal artery): 2.01±0.12; % of C5a potency (human fetal artery; fetal artery, from log potency ratio at EC50 level): 1% |
| YSFKDMPPGR-OH [peptide 6] | 80 | 50 | EC50 (human neutrophils (PMN) [1]): 700 µM |
| YSFKDMQIGR [peptide 9] | 150 |  |  |
| YSFKDMQLGR [peptide 2] |  |  | cleavage of the C-terminal Arg (serum carboxypeptidases): significant cleavage |
| YSFKDMQLPR-OH [peptide 3] | 225 | 500 |  |
| YSFKDMQPGR-OH [peptide 4] | 500 |  |  |
| YSFKGLLLGR-OH [peptide 21] | 21 |  |  |
| YSFKGMLLGR-OH [peptide 20] | 10.5 |  | potency compared with peptide 2 in guinea-pig platelet assay (guinea-pig platelets; in words): about two times more potent; potency compared with peptide 2 in human fetal artery (human fetal artery; in words): about two times more potent |
| YSFKGMPLGR-OH [peptide 23] | 6.3 | 2 | EC50 (human neutrophils (PMN) [1]): 49.6 µM |
| YSFKPMQLaR (YSFKPMQL[dA]R) [peptide 24] |  |  | potency relative to natural C5a for elicitation of a spasmogenic response (Class 1) (human fetal artery; smooth muscle contraction assay, percent of natural/full C5a potency): 20-30% |
| B1 | 0.023 |  | EC50 (human neutrophils (PMN) [1]; human neutrophils, β-glucuronidase release, read-out: PMN Enzyme Release EC50): 0.0123 µM; EC50 (human fetal artery; human fetal artery contraction, mean EC50 from individual experiments): 0.018 µM; EC50 (human neutrophils (PMN) [2]; human neutrophils, read-out: PMN Polarization EC50): 0.0013 µM |
